Patent publication US8933133B2, “Animal feeds containing polyols” (ADM Alliance Nutrition, Inc., priority 2006, dated 2015)

How the values were obtained:
rumen fluid = test: In vitro fermentation of polyols in an artificial rumen environment using rumen fluid as inoculum; conditions: for extent of fermentation: by 24 hours, judged from final gas volume and VFA; for extent of fermentation / fermentation rate: in words; for fermentation rate: in vitro rumen fermentation, gas production monitored every 30 minutes
Description: Fermentations were performed on two separate days where gas production was monitored every 30 minutes. In addition, pH, ammonia (NH3), and volatile fatty acid (“VFA”) production were measured after 24 hours. Duplicate samples of each compound were evaluated using in vitro rumen fermentations.
Duplicate samples of these compounds were fermented in vitro using rumen fluid as inoculum. Samples were weighed into 150 mL serum bottles (0.3 grams per bottle) using a CO2 atmosphere to provide an anaerobic environment. A standard buffered media was prepared (no additional feed matter was included in the fermentation), degassed, and added to the serum bottles (see, Goering, H. K., and P. J. Van Soest, “Forage Fiber Analyses (Apparatus, Reagents, Procedures, and Some Applications),” Agric. Handbook, No 379, ARS-USDA, Washington, D.C., 1970). Rumen fluid was obtained from a dairy cow, filtered, and added to the serum bottles as 20% of the total fluid addition (30 mL total fluid volume). The serum bottles were sealed, placed in an incubator, and the fermentation was allowed to proceed. Fermentations were performed on two separate days, during which time gas production was monitored every 30 minutes and pH, NH3, and VFA production measured after 24 hours.

[1] = test system: circulating non-esterified fatty acids (NEFA); test: Circulating non-esterified fatty acids in lambs fed a polyol supplement; format: in vivo; conditions: lambs fed restricted diet (75% of maintenance energy requirements), supplement 25 to 45 grams/lamb, blood 1-24 hours after dose
Description: In this Example, the effect of a diet comprising an isolated or purified polyol on the level of circulating non-esterified fatty acids (“NEFA”) in lambs was examined.
Four lambs were used in this Example. The lambs were fed a basal diet the first week followed by at least 4 weeks during which the supplement treatments were evaluated. The lambs were fed a diet supplement comprising sorbitan during the second and third weeks of the treatment. The lambs were fed a diet supplement comprising polyglycerol during the fourth and fifth weeks of the treatment. The diet supplements were fed separate from the basal diet feed.

| extent of fermentation (rumen fluid) | SMILES | rumen escape (rumen fluid; estimated from rate of in vitro fermentation / gas production, by weight escaping fermentation in the rumen) | fermentation rate (rumen fluid) | change in circulating NEFA levels [1] |
| --- | --- | --- | --- | --- |
| largely fermented by 24 hours | OCC(O)CO [Glycerol, glycerol] | – | – | – |
| – | OC[C@@H](O)[C@H]1OC[C@H](O)[C@H]1O [Sorbitan, 1,4-anhydro-D-sorbitol] | greater than 80% | slower than glucose, sorbitol, or glycerol | decrease in circulating NEFA levels |
| largely fermented by 24 hours | OC[C@@H](O)[C@@H](O)[C@H](O)[C@@H](O)CO [Sorbitol, sorbitol] | – | slower than glucose | – |
